ChEMBL document CHEMBL3994622, “Design and synthesis of new RAF kinase-inhibiting antiproliferative quinoline derivatives. Part 2: Diarylurea derivatives” (Eur J Med Chem, 2017)

Tests used:
Format in all cases: functional
OVCAR-8 = test: Growth inhibition of human OVCAR8 cells assessed as cell growth at 10 uM incubated for 48 hrs by sulforhodamine B assay relative to control; details: OVCAR-8, 48 h, read-out: Activity
DU-145 = test: Growth inhibition of human DU145 cells assessed as cell growth at 10 uM incubated for 48 hrs by sulforhodamine B assay relative to control; details: DU-145, 48 h, read-out: Activity
NCI-H23 = test: Growth inhibition of human NCI-H23 cells assessed as cell growth at 10 uM incubated for 48 hrs by sulforhodamine B assay relative to control; details: NCI-H23, 48 h, read-out: Activity
HCT-15 = test: Growth inhibition of human HCT15 cells assessed as cell growth at 10 uM incubated for 48 hrs by sulforhodamine B assay relative to control; details: HCT-15, 48 h, read-out: Activity
U-251 = test: Growth inhibition of human U251 cells assessed as cell growth at 10 uM incubated for 48 hrs by sulforhodamine B assay relative to control; details: U-251, 48 h, read-out: Activity
OVCAR-4 = test: Growth inhibition of human OVCAR4 cells assessed as cell growth at 10 uM incubated for 48 hrs by sulforhodamine B assay relative to control; details: OVCAR-4, 48 h, read-out: Activity
Hs-578T = test: Growth inhibition of human Hs 578T cells assessed as cell growth at 10 uM incubated for 48 hrs by sulforhodamine B assay relative to control; details: read-out: Activity
NCI-H460 = test: Growth inhibition of human NCI-H460 cells assessed as cell growth at 10 uM incubated for 48 hrs by sulforhodamine B assay relative to control; details: NCI-H460, 48 h, read-out: Activity
SR = test: Growth inhibition of human SR cells assessed as cell growth at 10 uM incubated for 48 hrs by sulforhodamine B assay relative to control; details: read-out: Activity
HL-60(TB) = test: Growth inhibition of human HL-60(TB) cells assessed as cell growth at 10 uM incubated for 48 hrs by sulforhodamine B assay relative to control; details: HL-60, 48 h, read-out: Activity
SF-268 = test: Growth inhibition of human SF268 cells assessed as cell growth at 10 uM incubated for 48 hrs by sulforhodamine B assay relative to control; details: SF-268, 48 h, read-out: Activity
T47D = test: Growth inhibition of human T47D cells assessed as cell growth at 10 uM incubated for 48 hrs by sulforhodamine B assay relative to control; details: read-out: Activity
MCF7 = test: Growth inhibition of human MCF7 cells assessed as cell growth at 10 uM incubated for 48 hrs by sulforhodamine B assay relative to control; details: MCF7, 48 h, read-out: Activity
HCC 2998 = test: Growth inhibition of human HCC2998 cells assessed as cell growth at 10 uM incubated for 48 hrs by sulforhodamine B assay relative to control; details: HCC 2998, 48 h, read-out: Activity
HOP-92 = test: Growth inhibition of human HOP92 cells assessed as cell growth at 10 uM incubated for 48 hrs by sulforhodamine B assay relative to control; details: HOP-92, 48 h, read-out: Activity
OVCAR-5 = test: Growth inhibition of human OVCAR5 cells assessed as cell growth at 10 uM incubated for 48 hrs by sulforhodamine B assay relative to control; details: OVCAR-5, 48 h, read-out: Activity
MDA-MB-435 = test: Growth inhibition of human MDA-MB-435 cells assessed as cell growth at 10 uM incubated for 48 hrs by sulforhodamine B assay relative to control; details: MDA-MB-435, 48 h, read-out: Activity
A549 = test: Growth inhibition of human A549/ATCC cells assessed as cell growth at 10 uM incubated for 48 hrs by sulforhodamine B assay relative to control; details: A549, 48 h, read-out: Activity
SN12C = test: Growth inhibition of human SN12C cells assessed as cell growth at 10 uM incubated for 48 hrs by sulforhodamine B assay relative to control; details: read-out: Activity
CAKI-1 = test: Growth inhibition of human Caki1 cells assessed as cell growth at 10 uM incubated for 48 hrs by sulforhodamine B assay relative to control; details: CAKI-1, 48 h, read-out: Activity
SK-MEL-2 = test: Growth inhibition of human SK-MEL-2 cells assessed as cell growth at 10 uM incubated for 48 hrs by sulforhodamine B assay relative to control; details: SK-MEL-2, 48 h, read-out: Activity
NCI/ADR-RES = test: Growth inhibition of human NCI/ADR-RES cells assessed as cell growth at 10 uM incubated for 48 hrs by sulforhodamine B assay relative to control; details: read-out: Activity
786-0 = test: Growth inhibition of human 786-0 cells assessed as cell growth at 10 uM incubated for 48 hrs by sulforhodamine B assay relative to control; details: 786-0, 48 h, read-out: Activity
SF-539 = test: Growth inhibition of human SF539 cells assessed as cell growth at 10 uM incubated for 48 hrs by sulforhodamine B assay relative to control; details: SF-539, 48 h, read-out: Activity
SNB-75 = test: Growth inhibition of human SNB75 cells assessed as cell growth at 10 uM incubated for 48 hrs by sulforhodamine B assay relative to control; details: SNB-75, 48 h, read-out: Activity
HCT-116 = test: Growth inhibition of human HCT116 cells assessed as cell growth at 10 uM incubated for 48 hrs by sulforhodamine B assay relative to control; details: HCT-116, 48 h, read-out: Activity
SK-MEL-28 = test: Growth inhibition of human SK-MEL-28 cells assessed as cell growth at 10 uM incubated for 48 hrs by sulforhodamine B assay relative to control; details: SK-MEL-28, 48 h, read-out: Activity
SK-OV-3 = test: Growth inhibition of human SKOV3 cells assessed as cell growth at 10 uM incubated for 48 hrs by sulforhodamine B assay relative to control; details: SK-OV-3, 48 h, read-out: Activity
MOLT-4 = test: Growth inhibition of human MOLT4 cells assessed as cell growth at 10 uM incubated for 48 hrs by sulforhodamine B assay relative to control; details: MOLT-4, 48 h, read-out: Activity
BT-549 = test: Growth inhibition of human BT549 cells assessed as cell growth at 10 uM incubated for 48 hrs by sulforhodamine B assay relative to control; details: BT-549, 48 h, read-out: Activity
COLO 205 = test: Growth inhibition of human COLO205 cells assessed as cell growth at 10 uM incubated for 48 hrs by sulforhodamine B assay relative to control; details: COLO 205, 48 h, read-out: Activity
UACC-257 = test: Growth inhibition of human UACC257 cells assessed as cell growth at 10 uM incubated for 48 hrs by sulforhodamine B assay relative to control; details: UACC-257, 48 h, read-out: Activity
OVCAR-3 = test: Growth inhibition of human OVCAR3 cells assessed as cell growth at 10 uM incubated for 48 hrs by sulforhodamine B assay relative to control; details: OVCAR-3, 48 h, read-out: Activity

SMILES | growth at 10 µM (OVCAR-8) [%] | growth at 10 µM (DU-145) [%] | growth at 10 µM (NCI-H23) [%] | growth at 10 µM (HCT-15) [%] | growth at 10 µM (U-251) [%] | growth at 10 µM (OVCAR-4) [%] | growth at 10 µM (Hs-578T) [%] | growth at 10 µM (NCI-H460) [%] | growth at 10 µM (SR) [%] | growth at 10 µM (HL-60(TB)) [%] | growth at 10 µM (SF-268) [%] | growth at 10 µM (T47D) [%] | growth at 10 µM (MCF7) [%] | growth at 10 µM (HCC 2998) [%] | growth at 10 µM (HOP-92) [%] | growth at 10 µM (OVCAR-5) [%] | growth at 10 µM (MDA-MB-435) [%] | growth at 10 µM (A549) [%] | growth at 10 µM (SN12C) [%] | growth at 10 µM (CAKI-1) [%] | also measured
COc1cc2cc(Oc3ccc(NC(=O)Nc4cccc(C(F)(F)F)c4)cc3)c(C)nc2cc1OC | 8.32 | 26.7 | 6.78 | 15.2 | -85.7 | 31.7 | 22.6 | 2.68 | -6.62 | -24.8 | 29.2 | 27.8 | 6.81 | 25.4 | -29.5 | 27.8 | 7.23 | 3.09 | 17.2 | 9.13 | growth at 10 µM (SK-MEL-2): -35.8%; growth at 10 µM (NCI/ADR-RES): 6.98%; growth at 10 µM (786-0): 15.1%; growth at 10 µM (SF-539): 11.7%; growth at 10 µM (SNB-75): 13.1%; growth at 10 µM (HCT-116): 6.71%; growth at 10 µM (SK-MEL-28): 26.7%; growth at 10 µM (SK-OV-3): 3.35%; growth at 10 µM (MOLT-4): 0.81%; growth at 10 µM (BT-549): -8.13%; growth at 10 µM (COLO 205): -20.2%; growth at 10 µM (UACC-257): -14.5%; growth at 10 µM (OVCAR-3): -0.54%
Cc1nc2cc(O)c(O)cc2cc1Oc1ccc(NC(=O)Nc2ccc(Cl)c(Cl)c2)cc1 | 47.7 | 60.3 | 62.8 | 37.2 | 41.4 | 67.7 | 105 | 62.1 | 8.92 | 96.8 | 65.5 | 62.2 | 76.2 | 93.4 | 37.5 | 122 | 54.2 | 50.5 | 85.7 | 27.3 | growth at 10 µM (SK-MEL-2): 77.7%; growth at 10 µM (NCI/ADR-RES): 59%; growth at 10 µM (786-0): 103%; growth at 10 µM (SF-539): 56.9%; growth at 10 µM (SNB-75): 75.8%; growth at 10 µM (HCT-116): 44.6%; growth at 10 µM (SK-MEL-28): 79.1%; growth at 10 µM (SK-OV-3): 45%; growth at 10 µM (MOLT-4): 12.6%; growth at 10 µM (BT-549): 82.2%; growth at 10 µM (COLO 205): 34.7%; growth at 10 µM (UACC-257): 88.5%; growth at 10 µM (OVCAR-3): 67.9%
COc1cc2cc(Oc3ccc(NC(=O)Nc4ccc(C(F)(F)F)cc4)cc3)c(C)nc2cc1OC | 37.8 | 71.4 | 79.3 | 75.4 | 15 | 49 | 70.9 | 42.8 | 59.6 | 75.2 | 79.3 | 57.5 | 84.3 | 94.8 | 56.3 | 92.9 | 80.3 | 32.4 | 72.2 | 70.4 | growth at 10 µM (SK-MEL-2): 76.7%; growth at 10 µM (NCI/ADR-RES): 64.1%; growth at 10 µM (786-0): 74.9%; growth at 10 µM (SF-539): 96.9%; growth at 10 µM (SNB-75): 41%; growth at 10 µM (HCT-116): 47.2%; growth at 10 µM (SK-MEL-28): 58.4%; growth at 10 µM (SK-OV-3): 38.8%; growth at 10 µM (MOLT-4): 61.9%; growth at 10 µM (BT-549): 113%; growth at 10 µM (COLO 205): 40.4%; growth at 10 µM (UACC-257): 66.5%; growth at 10 µM (OVCAR-3): 67%
